From patent publication US20130184313A1, “NICOTINIC ACETYLCHOLINE RECEPTOR LIGANDS AND THE USES THEREOF” (The Board of Trustees of the University of Illinois, priority 2009, published 2013)
pKi: −log10 of the molar value. Several values for one entry are separate records, joined by “and”; a condition that tells them apart may be missing. Equal values may be shown once. Where a name gives a salt, the structure may show the parent alone. Marks after values point to notes of the source that are not given here.

Experiments:
[1] = target: α-Bungarotoxin-insensitive (α4β2) neuronal nicotinic receptor (Rattus norvegicus, UniProt P09483+P12390); test: biochemical; conditions: read-out: percent inhibition of the control radioligand specific binding
α4β4 nicotinic receptor = target: T1, α4β4 nicotinic receptor (Rattus norvegicus, UniProt P09483+P12392); type: binding
T1 construct: expressed in transfected cells; host or cells: stably transfected cell lines (e.g., HEK293, COS, CHO, NIH3T3)
Protocol: All binding assays were performed according to procedures set forth in the University of North Carolina at Chapel Hill National Institute of Mental Health Psychoactive Drug Screening Program Assay Protocol Book (pp. 50-54; PI: Bryan L. Roth MD, PhD).
Nicotinic receptors: α2β2, α2β4, α3β2, α3β4, α4β2, α4β4, endogenous α4β2. Assay buffer: 50 mM Tris-HCl, pH 7.4. Membrane fraction source: Stably transfected cell lines (e.g., HEK293, COS, CHO, NIH3T3) (α2β2, α2β4, α3β2, α3β4, α4β2, α4β4) or rat forebrain (α4β2).
Aliquots (50 μl) of radioligand were dispensed into the wells of a 96-well plate containing 100 μl of assay buffer. Then, duplicate 50-0 aliquots of the test and reference compound dilutions were added. […]
The 250-μl reactions were incubated at room temperature and shielded from light (to prevent photolysis of light-sensitive ligands) for 4 hours, then harvested by rapid filtration onto Whatman GF/B glass fiber filters pre-soaked with 0.5% polyethyleneimine using a 96-well Brandel harvester. […] The tubes were capped, labeled, and counted by liquid scintillation counting. […]

male Balb/cJ mice = test: Forced swim test in mice; type: in vivo
Protocol: The subjects were male Balb/cJ mice obtained from Jackson Laboratory, Bar Harbor, Me. Mice were housed 4 per cage under controlled conditions of temperature, relative humidity and light-dark cycle with free access to food and water.
Mice were individually placed into clear glass cylinders (i.e., 15 cm tall×10 cm wide, 1 L beakers) containing 23±1° C. water 12 cm deep (approximately 800 mL). The time the animal spent immobile was recorded over a 6 min trial. Immobility was described as the postural position of floating in the water.
The mice were injected intraperitoneally (i.p.) 30 minutes before the start of the test. In another set of experiments, the test compounds were administered orally (p.o.) 30 minutes before the start of the test.
The length of time spent floating was analyzed by Analysis of Variance (ANOVA) with dose of drug as the between-subject factor and time spent immobile across the 6 min test as the dependent variable. Post-hoc comparisons between the treatment groups and control group were made using Fisher's PLSD test. A significance level of 5% was used throughout.

α-Bungarotoxin-insensitive (α4β2) neuronal nicotinic receptor, sequence (P09483 31-630): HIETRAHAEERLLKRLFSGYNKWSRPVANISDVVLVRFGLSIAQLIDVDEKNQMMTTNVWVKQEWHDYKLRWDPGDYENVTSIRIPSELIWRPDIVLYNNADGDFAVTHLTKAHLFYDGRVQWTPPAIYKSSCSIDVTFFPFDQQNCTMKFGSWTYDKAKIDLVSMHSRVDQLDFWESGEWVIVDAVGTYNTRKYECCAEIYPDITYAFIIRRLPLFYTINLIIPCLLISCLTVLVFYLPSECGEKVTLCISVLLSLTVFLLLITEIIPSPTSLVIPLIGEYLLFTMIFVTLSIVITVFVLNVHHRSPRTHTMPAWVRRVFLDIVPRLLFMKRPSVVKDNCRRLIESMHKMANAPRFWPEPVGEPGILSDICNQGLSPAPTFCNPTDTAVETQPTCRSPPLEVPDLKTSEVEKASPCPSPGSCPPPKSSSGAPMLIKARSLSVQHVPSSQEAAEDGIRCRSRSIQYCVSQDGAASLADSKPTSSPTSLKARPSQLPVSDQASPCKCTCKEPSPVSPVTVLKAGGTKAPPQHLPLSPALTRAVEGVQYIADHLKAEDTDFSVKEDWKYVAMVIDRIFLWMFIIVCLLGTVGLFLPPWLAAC
α-Bungarotoxin-insensitive (α4β2) neuronal nicotinic receptor, sequence (P12390 25-500): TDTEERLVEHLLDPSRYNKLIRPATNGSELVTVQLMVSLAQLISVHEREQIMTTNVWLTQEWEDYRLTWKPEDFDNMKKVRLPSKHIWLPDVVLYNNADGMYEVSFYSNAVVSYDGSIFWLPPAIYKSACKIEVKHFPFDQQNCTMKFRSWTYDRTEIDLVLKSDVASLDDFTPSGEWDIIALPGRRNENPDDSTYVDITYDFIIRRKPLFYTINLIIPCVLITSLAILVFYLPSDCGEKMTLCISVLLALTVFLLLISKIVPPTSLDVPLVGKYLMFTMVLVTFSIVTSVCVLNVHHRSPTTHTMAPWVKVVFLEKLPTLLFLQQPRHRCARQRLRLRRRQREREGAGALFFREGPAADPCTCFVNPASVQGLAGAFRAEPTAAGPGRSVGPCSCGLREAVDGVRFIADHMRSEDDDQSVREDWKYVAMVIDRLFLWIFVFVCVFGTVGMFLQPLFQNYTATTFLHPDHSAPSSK
T1 sequence (P09483 31-630): as the sequence (P09483 31-630) above
T1 sequence (P12392 21-495): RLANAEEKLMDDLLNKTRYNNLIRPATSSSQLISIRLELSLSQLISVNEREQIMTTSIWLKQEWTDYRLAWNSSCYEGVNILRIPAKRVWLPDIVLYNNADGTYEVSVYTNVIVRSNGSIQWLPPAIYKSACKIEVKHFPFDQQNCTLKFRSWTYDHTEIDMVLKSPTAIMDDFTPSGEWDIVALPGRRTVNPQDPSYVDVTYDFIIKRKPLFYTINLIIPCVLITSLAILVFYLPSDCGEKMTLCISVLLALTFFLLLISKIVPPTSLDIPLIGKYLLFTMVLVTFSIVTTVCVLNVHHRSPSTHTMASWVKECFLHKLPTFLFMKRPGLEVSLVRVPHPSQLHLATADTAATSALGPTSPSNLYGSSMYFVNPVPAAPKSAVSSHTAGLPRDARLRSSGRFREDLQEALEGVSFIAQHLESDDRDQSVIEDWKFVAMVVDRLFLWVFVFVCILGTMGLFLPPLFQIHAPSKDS

SMILES	inhibition at 0.1 µM [1]	further results
CN1CCC[C@H]1COc1cncc(-c2cc(CCCOc3ccccc3)no2)c1 [Example 41, 3-[(1-Methyl-2(S)-pyrrolidinyl)methoxy]-5-[3-(3-phenoxypropyl)-5-isoxazolyl]pyridine Hydrochloride]	59 to 100%	–
OCCCc1ccc(-c2cncc(OC[C@@H]3CCN3)c2)cc1 [Example 15d]	59 to 100%	–
OCCc1cccc(-c2cncc(OC[C@@H]3CCN3)c2)c1 [Example 24, 2-[3-[5-[(2(S)-Azetidinyl)methoxy]-3-pyridyl]phenyl]ethanol]	59 to 100%	–
c1ccc(COC[C@H]2C[C@@H]2c2cncc(OC[C@@H]3CCN3)c2)nc1 [Example 14, 3-[(2(S)-Azetidinyl)methoxy]-5-[(1S,2S)-2-[(2-pyridinylmethoxy)methyl]cyclopropyl]pyridine]	59 to 100%	–
OCC[C@H]1C[C@@H]1c1cncc(OC[C@@H]2CCN2)c1 [drawing 418]	–	pKi (α4β4 nicotinic receptor): 7.08
CC(=O)NCCCc1cccc(-c2cncc(OC[C@@H]3CCN3)c2)c1 [Example 22, N-(3-[3-[5-[(2(S)-Azetidinyl)methoxy]-3-pyridyl]phenyl]propyl]acetamide]	59 to 100%	–
c1ncc(N2CC3CC3C2)cc1OC[C@@H]1CCN1 (stereo partly drawn) [Example 46, 3-[5-[(2(S)-Azetidinyl)methoxy]-3-pyridyl]-3-azabicyclo[3.1.0]hexane]	59 to 100%	–
OCCCc1cccc(-c2cncc(OC[C@H]3CCN3)c2)c1 [Example 19, 3-[3-[5-[(2(R)-Azetidinyl)methoxy]-3-pyridyl]phenyl]-1-propanol]	59 to 100%	–
Oc1ccc(OCCC2CCN(c3cncc(OC[C@@H]4CCCN4)c3)CC2)cc1 [Example 70, 4-[2-[1-[5-[(2(S)-Pyrrolidinyl)methoxy]-3-pyridyl]-4-piperidinyl]ethoxy]phenol]	8 to 28%	–
c1ccc(COCCc2cccc(-c3cncc(OC[C@@H]4CCN4)c3)c2)cc1 [Example 27, 3-[((2S)-Azetidinyl)methoxy]-5-[3-[2-(benzyloxy)ethyl]phenyl]pyridine]	59 to 100%	–
c1ccc(COCCC2CCN(c3cncc(OC[C@H]4CCCN4)c3)CC2)cc1 [Example 62, 3-[4-[2-(Benzyloxy)ethyl]-1-piperidinyl]-5-[(2(R)-pyrrolidinyl)methoxy]pyridine]	8 to 28%	–
OCCCCC#Cc1cncc(OC[C@@H]2CCN2)c1 [AMOP—H—OH]	–	effects in the forced swim test as indicated by a reduction in immobility time (male Balb/cJ mice; mouse, in vivo, ip): positive effects; Average Immobility Time (male Balb/cJ mice; mouse, in vivo, ip, 0.3 mg/kg): 116.7 s; Average Immobility Time (male Balb/cJ mice; mouse, in vivo, ip, 1 mg/kg): 20.2** seconds; Average Immobility Time (male Balb/cJ mice; mouse, in vivo, ip, 10 mg/kg): 5.3** seconds
CN[C@H]1CC[C@@H](c2ccc(Cl)c(Cl)c2)c2ccccc21 [Sertraline, sertraline, reference compound]	–	Average Immobility Time (male Balb/cJ mice; Table 2, 20 mg/kg i.p., 30 min before test, 6 min trial, vehicle 126.3): 11.99** seconds; Average Immobility Time (male Balb/cJ mice; Table 4, 10 mg/kg i.p., 30 min before test, 6 min trial, vehicle 115.2): 23.7** seconds; Average Immobility Time (male Balb/cJ mice; Table 5, 10 mg/kg i.p., 30 min before test, 6 min trial, vehicle 104.9): 47.8** seconds
c1cncc(OC[C@H]2C[C@@H]2c2cncc(OC[C@@H]3CCN3)c2)c1 [Example 12, 3-[(2(S)-Azetidinyl)methoxy]-5-[(1S,2S)-2-[(3-pyridyloxy)methyl]cyclopropyl]pyridine]	59 to 100%	–
OCc1cc(-c2cncc(OC[C@@H]3CCN3)c2)on1 [Example 37, 5-[5-(2(S)-Azetidinylmethoxy)-3-pyridyl]-3-isoxazolylmethanol]	59 to 100%	–
OCCCc1cccc(-c2cncc(OC[C@@H]3CCN3)c2)c1 [Example 15c, 3-[3-[5-[(2(S)-Azetidinyl)methoxy]-3-pyridyl]phenyl]-1-propanol]	59 to 100%	change in immobility time compared to the vehicle (male Balb/cJ mice; mouse, in vivo): did not show any change; reduction in immobility time compared to vehicle (male Balb/cJ mice; mouse, in vivo): 24.5 s; effects in the forced swim test as indicated by a reduction in immobility time (male Balb/cJ mice; mouse, in vivo, ip): positive effects; Average Immobility Time (male Balb/cJ mice; mouse, in vivo, ip, 5 mg/kg): 110.6 s; Average Immobility Time (male Balb/cJ mice; mouse, in vivo, ip, 10 mg/kg): 105.1** seconds and 85.3** seconds; Average Immobility Time (male Balb/cJ mice; mouse, in vivo, ip, 20 mg/kg): 49.7** seconds
OCC[C@H]1C[C@@H]1c1cncc(OC[C@@H]2CCN2)c1 [Example 2, 2-[(1R,2S)-2-[5-[(2(S)-Azetidinyl)methoxy]-3-pyridyl]cyclopropyl]ethanol]	59 to 100%	effects in the forced swim test as indicated by a reduction in immobility time (male Balb/cJ mice; mouse, in vivo, ip): positive effects; Average Immobility Time (male Balb/cJ mice; mouse, in vivo, ip, 10 mg/kg): 44** seconds; Average Immobility Time (male Balb/cJ mice; mouse, in vivo, ip, 20 mg/kg): 7** seconds
c1ccc(OCCC2CCN(c3cncc(OC[C@@H]4CCCN4)c3)CC2)cc1 [Example 58, 3-[4-(2-Phenoxyethyl)-1-piperidinyl]-5-[(2(S)-pyrrolidinyl)methoxy]pyridine]	8 to 28%	–
c1ccc(COCCC2CCN(c3cncc(OC[C@@H]4CCCN4)c3)CC2)cc1 [Example 51, 3-[4-[2-(Benzyloxy)ethyl]-1-piperidinyl]-5-[(2(S)-pyrrolidinyl)methoxy]pyridine]	59 to 100%	–
c1ccc(OC[C@H]2C[C@@H]2c2cncc(OC[C@@H]3CCN3)c2)cc1 [Example 11, 3-[(2(S)-Azetidinyl)methoxy]-5-[(1S,2S)-2-(phenoxymethyl)cyclopropyl]pyridine]	59 to 100%	–
